Experimental findings from patent US20130137865A1 (TAISHO PHARMACEUTICAL CO., LTD., priority 2010, published 2013) are described below.

For experiment [1], the target named is T1, rat mGlu2 receptor (Rattus norvegicus, UniProt P31421).
T1 construct: expressed in transfected cells; host or cells: CHO cells
Description: [35S]GTPγS binding test (1), membranes of CHO cells stably expressing rat mGlu2. The experiment is classed as biochemical. Particulars: inhibition of glutamic acid (20 μM)-stimulated specific [35S]GTPγS binding. The protocol:
(Preparation of Crude Membrane Fraction of CHO Cells Stably Expressing the Rat Metabotropic Glutamate Receptor (mGlu2))
(§1) CHO cells stably expressing the rat mGlu2 receptor were cultured in a 10% dialyzed fetal bovine serum-containing Dulbecco's Modified Eagle's Medium [1% proline, 50 units/mL penicillin, 50 μg/mL streptomycin, and 2 mM L-glutamine (to be added when used)] at 37° C. in 5% CO2. Confluent cells were washed with PBS(−) twice, and were then harvested with a cell scraper. Then, the cells were centrifuged at 4° C. at 1000 rpm for 5 minutes to collect. The obtained precipitate was suspended in a 20 mM HEPES buffer (pH 7.4), and then homogenized with a Teflon® homogenizer. The resultant was centrifuged at 4° C. at 48,000×g for 20 minutes to obtain a precipitate again. The obtained precipitate was washed twice by centrifugation, and was then homogenized with the above-mentioned buffer, so as to obtain a crude membrane fraction. The obtained crude membrane fraction was preserved at −80° C.
(§2) The frozen membrane fraction as prepared above was thawed when used, and it was then diluted with a binding test buffer (final concentration: 20 mM HEPES, 100 mM NaCl, 10 mM MgCl2, 8.4 μM GDP, 10 μg/mL saponin, and 0.1% BSA). The compound of the Example was added to a membrane fraction (10 μg protein/assay), and the obtained mixture was then incubated at 30° C. for 20 minutes. Thereafter, glutamic acid (final concentration: 20 μM) and [^35S]GTPγS (final concentration: 0.15 nM) were added to the reaction mixture, and then incubated at 30° C. for 1 hour. After completion of the incubation, the reaction mixture was subjected to filtration over a Whatman GF/C filter that had previously been immersed in a 20 mM HEPES buffer (pH 7.4), and the filter was then washed three times with 300 μL of ice-cold 20 mM HEPES buffer (pH 7.4). A scintillation cocktail was added to the resulting filter, and membrane-bound radioactivity was then measured with a liquid scintillation counter.
(§3) The amount of [^35S]GTPγS bound in the case of carrying out the above described reaction in the absence of glutamic acid was defined as non-specific binding. The difference between such non-specific bound and the amount of [^35S]GTPγS bound in the presence of glutamic acid was defined as specific binding. Using non-linear analysis, a concentration-inhibition curve was produced. The concentration of the compound of each Example that caused 50% inhibition (IC50 value) of specific binding was determined from each concentration-inhibition curve.

Experiment [2] deals with T2, human mGlu2 receptor (Homo sapiens, UniProt Q14416).
T2 construct: expressed in transfected cells; host or cells: CHO cells
Description: [35S]GTPγS binding test (2), membranes of CHO cells stably expressing human mGlu2. The note with it: inhibition of glutamic acid (20 μM)-stimulated specific [35S]GTPγS binding. It is filed as biochemical. The protocol:
(Preparation of Crude Membrane Fraction of CHO Cells Stably Expressing the Human Metabotropic Glutamate Receptor (mGlu2))
as §1, with “human” for “rat”, “streptomycin, 400 μg/mL hygromycin B,” for “streptomycin,”
as §2, §3

Each structure is given as a SMILES string. pIC50: −log10 of the molar value.

T2 sequence (Q14416 19-872): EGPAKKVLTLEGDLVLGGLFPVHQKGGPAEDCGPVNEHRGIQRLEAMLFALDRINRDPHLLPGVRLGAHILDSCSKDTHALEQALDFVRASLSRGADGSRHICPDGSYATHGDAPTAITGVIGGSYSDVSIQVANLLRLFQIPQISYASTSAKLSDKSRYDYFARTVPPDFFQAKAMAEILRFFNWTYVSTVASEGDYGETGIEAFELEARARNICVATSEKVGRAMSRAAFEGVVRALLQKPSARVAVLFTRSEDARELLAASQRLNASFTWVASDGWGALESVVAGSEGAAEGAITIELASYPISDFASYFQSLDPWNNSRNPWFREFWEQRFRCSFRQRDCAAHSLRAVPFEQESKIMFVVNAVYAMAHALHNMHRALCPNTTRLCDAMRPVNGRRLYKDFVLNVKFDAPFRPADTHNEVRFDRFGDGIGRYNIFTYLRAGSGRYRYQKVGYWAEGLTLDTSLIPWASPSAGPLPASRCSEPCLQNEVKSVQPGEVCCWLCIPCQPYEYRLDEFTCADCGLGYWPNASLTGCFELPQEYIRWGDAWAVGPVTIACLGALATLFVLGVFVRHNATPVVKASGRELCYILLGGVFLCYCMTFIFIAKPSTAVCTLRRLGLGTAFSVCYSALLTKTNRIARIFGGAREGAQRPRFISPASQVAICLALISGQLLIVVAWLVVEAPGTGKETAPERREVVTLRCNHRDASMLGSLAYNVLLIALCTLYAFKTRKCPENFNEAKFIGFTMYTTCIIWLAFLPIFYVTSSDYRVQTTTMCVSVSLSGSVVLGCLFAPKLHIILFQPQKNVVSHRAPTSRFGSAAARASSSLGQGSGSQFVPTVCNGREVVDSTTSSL
T1 sequence (P31421 19-872): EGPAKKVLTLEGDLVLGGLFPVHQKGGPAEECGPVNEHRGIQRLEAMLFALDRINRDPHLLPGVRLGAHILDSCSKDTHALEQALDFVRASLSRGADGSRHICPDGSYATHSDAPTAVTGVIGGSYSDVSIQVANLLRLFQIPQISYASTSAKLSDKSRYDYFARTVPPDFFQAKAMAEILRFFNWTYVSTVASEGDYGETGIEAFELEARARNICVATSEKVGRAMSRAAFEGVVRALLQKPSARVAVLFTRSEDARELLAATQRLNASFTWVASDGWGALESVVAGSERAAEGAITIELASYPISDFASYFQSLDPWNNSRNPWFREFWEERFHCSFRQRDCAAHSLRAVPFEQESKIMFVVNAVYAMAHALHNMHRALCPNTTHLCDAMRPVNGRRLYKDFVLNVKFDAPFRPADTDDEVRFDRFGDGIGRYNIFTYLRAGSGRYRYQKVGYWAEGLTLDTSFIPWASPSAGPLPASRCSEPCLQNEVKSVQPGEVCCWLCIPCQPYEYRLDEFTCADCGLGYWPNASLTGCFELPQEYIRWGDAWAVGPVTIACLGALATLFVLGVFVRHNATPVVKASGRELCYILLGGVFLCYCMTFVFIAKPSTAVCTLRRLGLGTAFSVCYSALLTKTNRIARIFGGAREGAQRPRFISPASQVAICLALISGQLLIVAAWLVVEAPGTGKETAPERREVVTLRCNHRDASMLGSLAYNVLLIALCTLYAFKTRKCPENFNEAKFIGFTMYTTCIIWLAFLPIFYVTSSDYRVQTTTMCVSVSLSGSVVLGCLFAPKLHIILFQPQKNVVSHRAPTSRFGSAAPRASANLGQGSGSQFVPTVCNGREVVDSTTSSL

In the case of `COc1cccc(OCc2c(-c3nc(-c4cccc(S(N)(=O)=O)c4)no3)cnn2C)c1` [Example 66, 3-(5-{5-[(3-Methoxyphenoxy)methyl]-1-methyl-1H-pyrazol-4-yl}-1,2,4-oxadiazol-3-yl)benzenesulfonamide], the negative logarithm of the IC50 (pIC50) in experiment [1] is 8.37.

`Cn1ncc(-c2nc(-c3ccc(S(N)(=O)=O)cc3)no2)c1CCc1ccc(C(F)(F)F)cc1` [Example 19, 4-[5-(1-Methyl-5-{2-[4-(trifluoromethyl)phenyl]ethyl}-1H-pyrazol-4-yl)-1,2,4-oxadiazol-3-yl]benzenesulfonamide] showed a pIC50 in experiment [1] of 8.06.

With `Cn1ncc(-c2nc(-c3cccc(S(N)(=O)=O)c3)no2)c1-c1cnn(-c2ccc(Cl)cc2)c1` [Example 25, 3-{5-[1′-(4-Chlorophenyl)-2-methyl-1′H,2H-3,4′-bipyrazol-4-yl]-1,2,4-oxadiazol-3-yl}benzenesulfonamide], the negative-log IC50 (pIC50) in experiment [1] was 7.56.

For `CCn1ncc(-c2nc(-c3cccc(S(N)(=O)=O)c3)no2)c1CCc1ccc(C(F)(F)F)cc1` [Example 39, 3-[5-(1-Ethyl-5-{2-[4-(trifluoromethyl)phenyl]ethyl}-1H-pyrazol-4-yl)-1,2,4-oxadiazol-3-yl]benzenesulfonamide], the pIC50 in experiment [1] is 7.92.

`Cn1ncc(-c2nc(-c3cccc(S(N)(=O)=O)c3)no2)c1COc1cccc(OC(F)(F)F)c1` [Example 69, 3-[5-(1-Methyl-5-{[3-(trifluoromethoxy)phenoxy]methyl}-1H-pyrazol-4-yl)-1,2,4-oxadiazol-3-yl]benzenesulfonamide]: the pIC50 in experiment [1] is 8.45.

In experiment [1], `Cn1ncc(-c2nc(-c3cccc(S(N)(=O)=O)c3)no2)c1CCc1ccc(C(F)(F)F)cn1` [Example 8, 3-[5-(1-Methyl-5-{2-[5-(trifluoromethyl)pyridin-2-yl]ethyl}-1H-pyrazol-4-yl)-1,2,4-oxadiazol-3-yl]benzenesulfonamide] showed a negative-log IC50 (pIC50) of 7.01.

As to `Cn1ncc(-c2noc(-c3ccc(S(N)(=O)=O)cc3)n2)c1CCc1ccc(C(F)(F)F)cc1` [Example 3, 4-[3-(1-Methyl-5-{2-[4-(trifluoromethyl)phenyl]ethyl}-1H-pyrazol-4-yl)-1,2,4-oxadiazol-5-yl]benzenesulfonamide], in experiment [1], the pIC50 is 8.44.

The compound `NS(=O)(=O)c1cccc(-c2noc(-c3cnn(CF)c3CCc3ccc(C(F)(F)F)cc3)n2)c1` [Example 41, 3-{5-[1-(Fluoromethyl)-5-{2-[4-(trifluoromethyl)phenyl]ethyl}-1H-pyrazol-4-yl]-1,2,4-oxadiazol-3-yl}benzenesulfonamide] gave a negative-log IC50 (pIC50) in experiment [1] of 8.04. This pIC50 is 0.40 log units lower than that of the compound before.

`Cc1ccc(OCc2c(-c3nc(-c4cccc(S(N)(=O)=O)c4)no3)cnn2C)cc1` [Example 51, 3-(5-{1-Methyl-5-[(4-methylphenoxy)methyl]-1H-pyrazol-4-yl}-1,2,4-oxadiazol-3-yl)benzenesulfonamide] had a pIC50 in experiment [1] of 8.09.

Take `CN(C)CCNS(=O)(=O)c1cccc(-c2noc(-c3cnn(C)c3COc3ccc(F)cn3)n2)c1` [Example 85, N-[2-(Dimethylamino)ethyl]-3-[5-(5-{[(5-fluoropyridin-2-yl)oxy]methyl}-1-methyl-1H-pyrazol-4-yl)-1,2,4-oxadiazol-3-yl]benzenesulfonamide]: the pIC50 in experiment [2] was 7.87.

`Cn1ncc(-c2nc(-c3cccc(S(N)(=O)=O)c3)no2)c1COc1cccc(F)c1` [Example 68, 3-(5-{5-[(3-Fluorophenoxy)methyl]-1-methyl-1H-pyrazol-4-yl}-1,2,4-oxadiazol-3-yl)benzenesulfonamide] had a pIC50 in experiment [1] of 8.16.

In the case of `Cn1ncc(-c2nc(-c3cccc(S(N)(=O)=O)c3)no2)c1COc1ccc(C(F)(F)F)cc1` [Example 37, 3-[5-(1-Methyl-5-{[4-(trifluoromethyl)phenoxy]methyl}-1H-pyrazol-4-yl)-1,2,4-oxadiazol-3-yl]benzenesulfonamide], the negative logarithm of the IC50 (pIC50) in experiment [1] was 8.89. Compared with the last compound, the pIC50 is 0.73 log units higher.

The compound `CNS(=O)(=O)c1cccc(-c2noc(-c3cnn(C)c3COc3ccccn3)n2)c1` [Example 146, N-Methyl-3-(5-{1-methyl-5-[(pyridin-2-yloxy)methyl]-1H-pyrazol-4-yl}-1,2,4-oxadiazol-3-yl)benzenesulfonamide] gave a pIC50 in experiment [2] of 7.88.

In experiment [1], `Cn1ncc(-c2nc(-c3cccc(S(N)(=O)=O)c3)co2)c1CCc1ccc(C(F)(F)F)cc1` [Example 10, 3-[2-(1-Methyl-5-{2-[4-(trifluoromethyl)phenyl]ethyl}-1H-pyrazol-4-yl)-1,3-oxazol-4-yl]benzenesulfonamide] showed a negative-log IC50 (pIC50) of 8.00.

In experiment [1], `CN(C)CCNS(=O)(=O)c1ccc(-c2noc(-c3cnn(C)c3CCc3ccc(C(F)(F)F)cc3)n2)cc1` [Example 31, N-[2-(Dimethylamino)ethyl]-4-[5-(1-methyl-5-{2-[4-(trifluoromethyl)phenyl]ethyl}-1H-pyrazol-4-yl)-1,2,4-oxadiazol-3-yl]benzenesulfonamide] showed a pIC50 of 7.66.

For the compound `Cn1ncc(-c2nc(-c3ccc(N)nc3)no2)c1COc1ccc(C(F)(F)F)cc1` [Example 92, 5-[5-(1-Methyl-5-{[4-(trifluoromethyl)phenoxy]methyl}-1H-pyrazol-4-yl)-1,2,4-oxadiazol-3-yl]pyridine-2-amine], the pIC50 in experiment [2] is 7.54.

`Cn1ncc(-c2nc(-c3cccc(S(N)(=O)=O)c3)no2)c1COc1ncc(F)cc1Br` [Example 214, 3-[5-(5-{[(3-Bromo-5-fluoropyridin-2-yl)oxy]methyl}-1-methyl-1H-pyrazol-4-yl)-1,2,4-oxadiazol-3-yl]benzenesulfonamide]: the negative logarithm of the IC50 (pIC50) in experiment [2] was 7.58. The pIC50 values of the last two compounds are within 0.2 log units of each other.

On to `Cn1ncc(-c2nc(-c3cccc(S(N)(=O)=O)c3)no2)c1CNc1ccc(C(F)(F)F)cc1` [Example 9], for which the negative logarithm of the IC50 (pIC50) in experiment [1] is 7.55.

In experiment [2], `CNCCNS(=O)(=O)c1cccc(-c2noc(-c3cnn(C)c3COc3ccc(F)cn3)n2)c1` [Example 232, 3-[5-(5-{[(5-Fluoropyridin-2-yl)oxy]methyl}-1-methyl-1H-pyrazol-4-yl)-1,2,4-oxadiazol-3-yl]-N-[2-(methylamino)ethyl]benzenesulfonamide] had a pIC50 of 7.48.

The compound `Cn1ncc(-c2nnc(-c3cccc(S(N)(=O)=O)c3)o2)c1COc1ccc(C(F)(F)F)cn1` [Example 187, 3-{5-[1-Methyl-5-({[5-(trifluoromethyl)pyridin-2-yl]oxy}methyl)-1H-pyrazol-4-yl]-1,3,4-oxadiazol-2-yl}benzenesulfonamide] gave a pIC50 in experiment [2] of 7.67.

In the case of `Cn1ncc(-c2nc(-c3cncc(S(C)(=O)=O)c3)no2)c1COc1ccc(C(F)(F)F)cn1` [Example 223, 2-[(1-Methyl-4-{3-[5-(methylsulfonyl)pyridin-3-yl]-1,2,4-oxadiazol-5-yl}-1H-pyrazol-5-yl)methoxy]-5-(trifluoromethyl)pyridine], in experiment [2], the pIC50 was 7.77. The pIC50 values of the last two compounds are within 0.2 log units of each other.

Compound `CC(=O)Nc1cc(-c2noc(-c3cnn(C)c3COc3ccc(C(F)(F)F)cn3)n2)ccn1` [Example 217, N-(4-{5-[1-Methyl-5-({[5-(trifluoromethyl)pyridin-2-yl]oxy}methyl)-1H-pyrazol-4-yl]-1,2,4-oxadiazol-3-yl}pyridin-2-yl)acetamide] had a negative logarithm of the IC50 (pIC50) in experiment [2] of 7.83. The pIC50 values of the last two compounds are within 0.2 log units of each other.

In turn, `Cn1ncc(-c2nc(-c3cnc(N)nc3)no2)c1COc1ccc(C(F)(F)F)cn1` [Example 218, 5-{5-[1-Methyl-5-({[5-(trifluoromethyl)pyridin-2-yl]oxy}methyl)-1H-pyrazol-4-yl]-1,2,4-oxadiazol-3-yl}pyrimidine-2-amine] showed a negative logarithm of the IC50 (pIC50) in experiment [2] of 7.17.

Compound `Cn1ncc(-c2nc(-c3cccc(S(N)(=O)=O)c3)no2)c1COc1ccc(C(F)(F)F)cn1` [Example 122, 3-{5-[1-Methyl-5-({[5-(trifluoromethyl)pyridin-2-yl]oxy}methyl)-1H-pyrazol-4-yl]-1,2,4-oxadiazol-3-yl}benzenesulfonamide] showed a negative-log IC50 (pIC50) in experiment [2] of 8.88.
